Measured values: patent US6706734B2, “Arylpiperidinol and arylpiperidine derivatives and pharmaceuticals containing the same” (Daiichi Suntory Pharma Co., Ltd., priority 1996, dated 2004)
Counter-ions that a name gives are not always drawn.

Key:
T-type Ca^2+ channel = test: T-type calcium channel inhibitory effect (whole-cell patch clamp, hippocampal CA1 pyramidal cells); conditions: read-out: T-type Ca^2+ channel inhibitory effect IC50; suppression of peak current after one minute of application; rat hippocampal CA1 pyramidal cells
Protocol: T-Type Calcium Channel Inhibitory Effect
The hippocampal CA1 pyramidal cells were isolated from Wistar rats (female, 1 week old) according to the method reported by Takahashi et al. [K. Takahashi et al.; J. Pharmacol. Exp. Ther., 256, 169 (1991)] and the T-type calcium current under conditions of a fixed membrane potential was measured using the whole-cell configration of the patch clamp technique. The effects of the compounds were evaluated from the rate of suppression of the peak current after one minute of application using the concentration clamp method.

DBA/2N type mice = test: Audiogenic seizure suppressing effect; assay type: in vivo; conditions: Mus musculus, ip, 20 min, compound 10 mg/kg, i.p.; audio stimulus after 20 minutes; suppression of average seizure score; read-out: Antiseizure effect (suppression rate %)
Protocol: Audiogenic Seizure Suppressing Effect
The audiogenic seizure suppressing effect of the compounds was evaluated by the method of Sarro et al. [G. B. De Sarro et al., Br. J. Pharmacol., 93, 247 (1988)]. That is, the compound dissolved in 10% 2-hydroxypropyl-β-cyclodextrin was administered intraperitoneally to DBA/2N type mice (male, 3 weeks old). After 20 minutes, a supersonic washer was used to apply audio stimulus of at least 90 dB for one minute. The wild running (WR), clonic seizures (clonus), tonic seizures (tonus), and respiratory arrest (RA) were observed.

Sodium channel = test: Inhibitory effect of veratrizine-induced sodium channel activity (synaptosome membrane potential, Rhodamine 6G); assay type: biochemical, Wistar rats; conditions: compound 0.1 μM, rat brain synaptozomes, veratridine-induced depolarization
Protocol: Inhibitory Effect of Veratrizine-induced Sodium Channel Activity
The membrane potential of the synaptozomes prepared from the brain membrane of Wistar rats (male, 10 to 12 weeks old) was measured by the method of Aiuchi et al. (t. Aiuchi et al: Biochimi. Biophys. Acta. 771, 228 (1984)) using a membrane potential sensitive fluorescent dye Rhodamine 6G to evaluate the effects of suppression of the compound on the veratrizine-inducing depolarization response.

[1] = Acute toxicity after intravenous injection; conditions: mouse, in vivo, ddY mice (male, 6 weeks old), death rate up to 24 hours, read-out: 50% lethal dosage LD50 of acute toxicity
Excerpt: The compound according to the present invention is low in toxicity.

Compound | melting point | IC50 (T-type Ca^2+ channel) | inhibition in vivo at 10 mg/kg (DBA/2N type mice) | Anti-veratridine effect (inhibiting rate %) (Sodium channel) | LD50 at 24 h [1] | Anti-veratridine effect (inhibiting rate %) (Sodium channel; 0.1 µM)
O=C(CN1CCC(O)(c2ccc(Oc3ccc(F)cc3)cc2)CC1)c1ccccc1 (as salt: fumarate) | 50 to 52 °C |  |  |  |  | 
O[C@H](COc1ccccc1)CN1CCC(O)(c2ccc(Oc3ccc(F)cc3)cc2)CC1 (as salt: fumarate) | 48 to 50 °C |  |  |  |  | 
O=C(CN1CCC(O)(c2ccc(-c3ccccc3)c(F)c2)CC1)c1ccccc1 [Compound 20, 4-(3-fluoro-4-phenyl)phenyl-1-(2-phenyl-2-oxoethyl)-4-piperidinol] |  | 3 µM | 91.3% | 20.2% |  | 
OC1(c2ccc(-c3ccccc3)c(F)c2)CCN(C/C=C/c2ccccc2)CC1 [Compound 17, (E)-4-(3-fluoro-4-phenyl)phenyl-1-(3-phenyl-2-propenyl)-4-piperidinol] |  | 1.9 µM | 88% | 26.8% | 32 mg/kg | 
OC(COc1ccccc1)CN1CCC(O)(c2ccc(Cc3ccc(F)cc3)cc2)CC1 (stereo not shown) [Compound 39, 4-[4-(4-fluorophenyl)methylphenyl]-1-(2-hydroxy-3-phenoxy)propyl-4-piperidinol] |  | 1.3 µM | 90% |  |  | 18.7%
O[C@H](COc1ccccc1)CN1CCC(O)(c2ccc(-c3ccccc3)c(F)c2)CC1 [Compound 42, (S)-4-(3-fluoro-4-phenyl)phenyl-1-(2-hydroxy-3-phenoxy)propyl-4-piperidinol] |  | 0.55 µM | 72% | 21% |  | 
O[C@@H](COc1ccccc1)CN1CCC(O)(c2ccc(-c3ccccc3)c(F)c2)CC1 [Compound 43, (R)-4-(3-fluoro-4-phenyl)phenyl-1-(2-hydroxy-3-phenoxy)propyl-4-piperidinol] |  | 1.4 µM | 90% | 21.2% |  | 
OC1(c2ccc(Oc3ccc(F)cc3)cc2)CCN(C/C=C/c2ccccc2)CC1 (as salt: fumarate) | 148 to 150 °C |  |  |  |  | 
